The values that follow come from patent US20090215822A1, “Substituted Oxadiazole Derivatives as Positive Allosteric Modulators of Metabotropic Glutamate Receptors” (NIKEM RESEARCH SRL, priority 2005, published 2009).

One data set addresses T1, rat mGluR5 receptor (Rattus norvegicus, UniProt P31424).
T1 construct: expressed in transfected cells
Briefly: mGluR5 assay on HEK-expressing rat mGluR5 (fluorescent cell based Ca2+ mobilization assay). As to conditions: HEK-293 cells stably expressing rat mGluR5; no co-addition of glutamate; mean of at least three independent experiments in duplicate; read-out: Ca++ Flux (mean EC50). Here is the method:
Positive functional expression of HEK-293 cells stably expressing rat mGluR5 receptor was determined by measuring intracellular Ca^2+ changes using a Fluorometric Imaging Plate Reader (FLIPR, Molecular Devices, Sunnyvale, Calif.) in response to glutamate or selective known mGluR5 agonists and antagonists. Rat mGluR5 RT-PCR products in HEK-293 cells were sequenced and found 100% identical to rat mGluR5 Genbank reference sequence (NM_017012). HEK-293 cells expressing rmGluR5 were maintained in media containing DMEM, dialyzed Fetal Bovine Serum (10%), Glutamax™ (2 mM), Penicillin (100 units/ml), Streptomycin (100 μg/ml), Geneticin (100 μg/ml) and Hygromycin-B (40 μg/ml) at 37° C./5% CO2.
After one day of incubation, cells were washed with assay buffer containing: 142 mM NaCl, 6 mM KCl, 1 mM Mg2SO4, 1 mM CaCl2, 20 mM HEPES, 1 g/L glucose, 0.125 mM sulfinpyrazone, pH 7.4. After 60 min of loading with 4 uM Fluo-4 (TefLabs, Austin, Tex.), the cells were washed three times with 50 μl of PBS Buffer and resuspended in […] of assay Buffer. The plates were then transferred to a Fluorometric Imaging Plate Reader (FLIPR, Molecular Devices, Sunnyvale, Calif.) for the assessment of intracellular calcium flux. After monitoring the baseline fluorescence for 10 seconds, increasing concentrations of representative compound (from 0.01 to 60 μM) of the present invention diluted in Assay Buffer (15 μl of 4× dilutions) was added to the cell. The final DMSO concentration in the assay was 0.3%. In each experiment, fluorescence was then monitored as a function of time for 3 minutes and the data analyzed using Microsoft Excel and GraphPad Prism. Each data point was also measured two times.
Under these experimental conditions, this HEK-rat mGluR5 cell line is able to directly detect positive allosteric modulators without the need of co-addition of glutamate or mGluR5 agonist.
The concentration-response curves of representative compounds of the present invention were generated using the Prism GraphPad software (Graph Pad Inc, San Diego, USA). The curves were fitted to a four-parameter logistic equation:
(Y=Bottom+(Top-Bottom)/(1+10̂((Log EC50−X)*Hill Slope)
allowing determination of EC50 values.
The Table 1 below represents the mean EC50 obtained from at least three independent experiments of selected molecules performed in duplicate.
Background: A change in cytosolic calcium serves as a functional read-out for many receptors and channels.

T1 sequence (P31424 21-1171 isoform P31424-2 limits assumed): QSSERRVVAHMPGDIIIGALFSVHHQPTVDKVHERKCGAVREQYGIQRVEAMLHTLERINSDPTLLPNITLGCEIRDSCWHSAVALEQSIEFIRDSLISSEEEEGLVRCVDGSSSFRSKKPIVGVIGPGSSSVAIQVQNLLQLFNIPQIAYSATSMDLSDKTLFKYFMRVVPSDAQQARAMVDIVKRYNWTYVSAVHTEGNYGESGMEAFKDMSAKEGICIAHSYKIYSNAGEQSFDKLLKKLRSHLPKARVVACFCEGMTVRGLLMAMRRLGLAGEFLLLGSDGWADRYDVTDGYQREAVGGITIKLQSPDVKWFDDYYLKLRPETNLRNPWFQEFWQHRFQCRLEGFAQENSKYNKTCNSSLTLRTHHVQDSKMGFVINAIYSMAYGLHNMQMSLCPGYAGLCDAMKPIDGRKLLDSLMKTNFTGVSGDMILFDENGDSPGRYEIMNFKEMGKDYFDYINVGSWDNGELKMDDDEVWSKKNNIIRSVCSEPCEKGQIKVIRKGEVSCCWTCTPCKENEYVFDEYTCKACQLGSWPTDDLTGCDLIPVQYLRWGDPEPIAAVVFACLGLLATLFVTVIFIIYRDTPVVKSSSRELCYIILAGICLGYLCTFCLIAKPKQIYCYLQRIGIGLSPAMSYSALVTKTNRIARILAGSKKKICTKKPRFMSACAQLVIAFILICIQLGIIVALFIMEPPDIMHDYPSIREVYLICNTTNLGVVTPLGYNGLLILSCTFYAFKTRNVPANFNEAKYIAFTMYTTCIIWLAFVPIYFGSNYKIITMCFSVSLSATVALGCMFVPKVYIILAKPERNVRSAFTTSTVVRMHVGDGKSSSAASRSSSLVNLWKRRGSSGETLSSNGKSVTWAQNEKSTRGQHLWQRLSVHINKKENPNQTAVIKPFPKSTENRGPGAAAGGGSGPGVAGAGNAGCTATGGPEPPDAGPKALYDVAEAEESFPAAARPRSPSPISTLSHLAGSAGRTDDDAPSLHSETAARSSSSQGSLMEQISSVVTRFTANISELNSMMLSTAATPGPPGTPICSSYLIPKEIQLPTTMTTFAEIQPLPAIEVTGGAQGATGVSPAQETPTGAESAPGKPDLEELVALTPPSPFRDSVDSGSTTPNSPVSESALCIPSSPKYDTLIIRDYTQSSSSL

For the molecule `O=C(c1ccc(F)cc1)N1CCCC(c2noc(-c3ccc(F)cc3F)n2)C1` (stereo not drawn) [Example 13, {3-[5-(2,4-Difluoro-phenyl)-[1,2,4]oxadiazol-3-yl]-piperidin-1-yl}-(4-fluoro-phenyl)-methanone], the melting point – broadly, the temperature of the solid-liquid transition – is 88 °C. Moreover, the EC50 (in general, the concentration that produces a half-maximal response) at rat mGluR5 receptor is under 1000 nM.

`O=C(c1ccc(F)cc1)N1CCCC(c2noc(-c3ccncc3)n2)C1` (stereo not drawn) [Example 14, (4-Fluoro-phenyl)-[3-(5-pyridin-4-yl-[1,2,4]oxadiazol-3-yl)-piperidin-1-yl]-methanone] had a melting point of 149 to 151 °C. Besides, the half-maximal effective concentration (EC50) on rat mGluR5 receptor lay in the range of 1000 to 10000 nM.

In the case of `O=C(c1ccc(F)c(F)c1)N1CCCC(c2noc(-c3ccncc3)n2)C1` (stereo not drawn) [Example 15, (3,4-Difluoro-phenyl)-[3-(5-pyridin-4-yl-[1,2,4]oxadiazol-3-yl)-piperidin-1-yl]-methanone], the melting point is 132 to 134 °C. Moreover, the concentration giving a half-maximal response (EC50) at rat mGluR5 receptor was under 1000 nM.

`O=C(c1ccc(F)cc1F)N1CCCC(c2noc(-c3ccncc3)n2)C1` (stereo not drawn) [Example 16, (2,4-Difluoro-phenyl)-[3-(5-pyridin-4-yl-[1,2,4]oxadiazol-3-yl)-piperidin-1-yl]-methanone] returned a melting point of 137 to 139 °C. The EC50 on rat mGluR5 receptor was in the range of 1000 to 10000 nM.

`O=C(c1ccc(F)c(F)c1)N1CCCC(c2noc(-c3ccc(F)cc3F)n2)C1` (stereo not drawn) [Example 17, (3,4-Difluoro-phenyl)-{3-[5-(2,4-difluoro-phenyl)-[1,2,4]oxadiazol-3-yl]-piperidin-1-yl}-methanone] yielded a melting point of 91 °C. In addition, the EC50 at rat mGluR5 receptor was under 1000 nM.

`O=C(c1ccc(F)cc1F)N1CCCC(c2noc(-c3ccc(F)cc3)n2)C1` (stereo not drawn) [Example 18, (2,4-Difluoro-phenyl)-{3-[5-(4-fluoro-phenyl)-[1,2,4]oxadiazol-3-yl]-piperidin-1-yl}-methanone] gave a melting point of 137 to 139 °C. On rat mGluR5 receptor, the 50% effective concentration (EC50) is under 1000 nM.

With `O=C(c1ccc(F)cc1F)N1CCCC(c2noc(-c3ccc(F)cc3F)n2)C1` (stereo not drawn) [Example 19, (2,4-Difluoro-phenyl)-{3-[5-(2,4-difluoro-phenyl)-[1,2,4]oxadiazol-3-yl]-piperidin-1-yl}-methanone], the melting point was found to be 101 °C. The EC50 at rat mGluR5 receptor lay in the range of 1000 to 10000 nM.

As for `O=C(c1ccc(F)nc1)N1CCCC(c2noc(-c3ccncc3)n2)C1` (stereo not drawn) [Example 21, (6-Fluoro-pyridin-3-yl)-[3-(5-pyridin-4-yl-[1,2,4]oxadiazol-3-yl)-piperidin-1-yl]-methanone], the melting point fell in the range of 132 to 134 °C. Moreover, the EC50 on rat mGluR5 receptor was in the range of 1000 to 10000 nM.

For `Cc1oncc1C(=O)N1CCCC(c2noc(-c3ccc(F)cc3F)n2)C1` (stereo not drawn) [Example 24, {3-[5-(2,4-Difluoro-phenyl)-[1,2,4]oxadiazol-3-yl]-piperidin-1-yl}-(5-methyl-isoxazol-4-yl)-methanone], the melting point came to 79 °C. Moreover, the EC50 on rat mGluR5 receptor was in the range of 1000 to 10000 nM.

In turn, `O=C(c1ccc(F)nc1)N1CCCC(c2noc(-c3ccc(F)cc3F)n2)C1` (stereo not drawn) [Example 25, {3-[5-(2,4-Difluoro-phenyl)-[1,2,4]oxadiazol-3-yl]-piperidin-1-yl}-(6-fluoro-pyridin-3-yl)-methanone] gave a melting point of 87 °C. Also, the EC50 on rat mGluR5 receptor was in the range of 1000 to 10000 nM.

Molecule `Cc1cc(F)ccc1C(=O)N1CCCC(c2noc(-c3ccc(F)cc3)n2)C1` (stereo not drawn) [Example 27, (4-Fluoro-2-methyl-phenyl)-{3-[5-(4-fluoro-phenyl)-[1,2,4]oxadiazol-3-yl]-piperidin-1-yl}-methanone] had a melting point of 129 to 131 °C. For the same molecule, at rat mGluR5 receptor, the EC50 fell in the range of 1000 to 10000 nM.

As for `Cc1oncc1C(=O)N1CCCC(c2noc(-c3ccc(F)cc3)n2)C1` (stereo not drawn) [Example 28, {3-[5-(4-Fluoro-phenyl)-[1,2,4]oxadiazol-3-yl]-piperidin-1-yl}-(5-methyl-isoxazol-4-yl)-methanone], the melting point lay within 105 to 107 °C. For the same molecule, the EC50 at rat mGluR5 receptor was under 1000 nM.
